Assay results reported in ChEMBL document CHEMBL2074418, “Limited oral bioavailability and active epithelial excretion of paclitaxel (Taxol) caused by P-glycoprotein in the intestine” (Proc Natl Acad Sci U S A, 1997).

Key:
[1] = biological target: T1, ATP-dependent translocase ABCB1 (Mus musculus, UniProt P21447); test: TP_TRANSPORTER: increase in bioavailability in mdr1a(-/-) mouse; assay type: functional, organism-based; conditions: in vivo
[2] = biological target: T1, ATP-dependent translocase ABCB1; test: TP_TRANSPORTER: increase in plasma concentration in mdr1a(-/-) mouse; assay type: functional, organism-based; conditions: in vivo

T1 sequence (P21447 whole entry): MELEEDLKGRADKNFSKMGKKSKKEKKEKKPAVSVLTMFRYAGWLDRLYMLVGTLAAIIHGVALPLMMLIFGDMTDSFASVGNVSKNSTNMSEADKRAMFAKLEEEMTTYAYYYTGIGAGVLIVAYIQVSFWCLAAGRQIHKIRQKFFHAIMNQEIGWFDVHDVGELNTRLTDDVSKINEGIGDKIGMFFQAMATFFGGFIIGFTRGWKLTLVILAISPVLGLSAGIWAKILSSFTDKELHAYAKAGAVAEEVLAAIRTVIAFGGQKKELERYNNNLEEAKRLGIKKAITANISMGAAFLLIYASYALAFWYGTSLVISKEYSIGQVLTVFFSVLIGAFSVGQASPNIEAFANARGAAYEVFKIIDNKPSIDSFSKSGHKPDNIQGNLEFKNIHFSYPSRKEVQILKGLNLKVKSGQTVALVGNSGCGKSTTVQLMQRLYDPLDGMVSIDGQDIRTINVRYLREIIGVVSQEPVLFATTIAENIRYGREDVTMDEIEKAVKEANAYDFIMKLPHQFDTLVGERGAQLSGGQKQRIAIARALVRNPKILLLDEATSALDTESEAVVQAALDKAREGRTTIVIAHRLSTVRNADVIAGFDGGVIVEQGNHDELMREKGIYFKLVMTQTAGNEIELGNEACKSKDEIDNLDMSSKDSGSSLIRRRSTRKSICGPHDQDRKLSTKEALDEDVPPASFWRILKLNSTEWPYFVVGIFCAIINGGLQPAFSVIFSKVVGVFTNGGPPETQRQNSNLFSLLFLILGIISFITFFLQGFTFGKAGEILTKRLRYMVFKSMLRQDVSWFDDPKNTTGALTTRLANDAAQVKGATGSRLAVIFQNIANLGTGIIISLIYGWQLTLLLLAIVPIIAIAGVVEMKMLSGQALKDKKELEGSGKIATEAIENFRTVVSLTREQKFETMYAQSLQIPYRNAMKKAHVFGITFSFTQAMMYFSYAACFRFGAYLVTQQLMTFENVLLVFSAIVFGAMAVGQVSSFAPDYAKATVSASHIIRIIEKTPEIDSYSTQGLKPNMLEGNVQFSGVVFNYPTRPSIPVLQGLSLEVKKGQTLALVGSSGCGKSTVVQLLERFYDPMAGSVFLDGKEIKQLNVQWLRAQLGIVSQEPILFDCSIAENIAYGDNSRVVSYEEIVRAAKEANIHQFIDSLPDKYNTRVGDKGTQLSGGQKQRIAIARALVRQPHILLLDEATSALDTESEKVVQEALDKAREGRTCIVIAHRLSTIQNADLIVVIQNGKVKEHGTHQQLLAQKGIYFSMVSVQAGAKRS

Activity [1]: substrate [+]
Activity [2]: substrate [+]
Structure (SMILES): CC(=O)O[C@H]1C(=O)[C@@]2(C)[C@H]([C@H](OC(=O)c3ccccc3)[C@]3(O)C[C@H](OC(=O)[C@H](O)[C@@H](NC(=O)c4ccccc4)c4ccccc4)C(C)=C1C3(C)C)[C@]1(OC(C)=O)CO[C@@H]1C[C@@H]2O [PACLITAXEL]
